Experimental data: patent US6054435A, “6-O-substituted macrolides having antibacterial activity” (priority 1999, dated 2000)
Converted amounts (≈) assume the structure as drawn.

Assays:
Assay in all cases: in vitro antibacterial activity (MIC), agar dilution
Type in all cases: cell-based
[1] = test system: Streptococcus bovis A-5169; conditions: organism code JJ; BHI agar, 35-37° C., 20 to 24 hours; unit assumed
In short: (§1)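 Agar dilution in BHI agar, twelve successive compound dilutions. Inoculum 1:100, or 1:10 for slow-growing strains (e.g. Streptococcus), replicator-spotted. Read by eye; MIC = lowest concentration with no growth, slight haze or sparsely isolated colonies relative to growth control.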

[2] = test system: Mycobacterium smegmatis ATCC 114; conditions: organism code UU; BHI agar, 35-37° C., 20 to 24 hours; unit assumed
In short: as §1

[3] = test system: Staphylococcus epidermidis 3519; conditions: organism code HH; BHI agar, 35-37° C., 20 to 24 hours; unit assumed
In short: as §1

[4] = test system: Streptococcus Pneumonia 5979; conditions: organism code ZZ; BHI agar, 35-37° C., 20 to 24 hours; unit assumed
In short: as §1

[5] = test system: Micrococcus luteus ATCC 4698; conditions: organism code PP; BHI agar, 35-37° C., 20 to 24 hours; unit assumed
In short: (§2)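 Plates of BHI agar were prepared with twelve aqueous dilutions of compound, then inoculated at 1:100 dilution, or 1:10 for slow growers like Streptococcus. After incubation they were inspected, and the lowest concentration yielding no growth, slight haze or sparse colonies was recorded as MIC.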

[6] = test system: Streptococcus pyogenes PIU 2548; conditions: organism code NN; BHI agar, 35-37° C., 20 to 24 hours; unit assumed
In short: as §1

Escherichia coli SS = conditions: organism code RR; BHI agar, 35-37° C., 20 to 24 hours; unit assumed
In short: as §1

[7] = test system: Staphylococcus aureus 1775; conditions: organism code GG; BHI agar, 35-37° C., 20 to 24 hours; unit assumed
In short: as §1

[8] = test system: Staphylococcus aureus A-5278; conditions: organism code CC; BHI agar, 35-37° C., 20 to 24 hours; unit assumed
In short: as §1

[9] = test system: Streptococcus Pneumonia 5649; conditions: organism code ZZA; BHI agar, 35-37° C., 20 to 24 hours; unit assumed
In short: as §1

[10] = test system: Streptococcus Pneumonia ATCC6303; conditions: organism code XX; BHI agar, 35-37° C., 20 to 24 hours; unit assumed
In short: as §1

Candida albicans CCH 442 = conditions: organism code TT; BHI agar, 35-37° C., 20 to 24 hours; unit assumed
In short: as §1

[11] = test system: Staphylococcus aureus CMX 642A; conditions: organism code DD; BHI agar, 35-37° C., 20 to 24 hours; unit assumed
In short: as §1

[12] = test system: Streptococcus pyogenes 930; conditions: organism code MM; BHI agar, 35-37° C., 20 to 24 hours; unit assumed
In short: as §1

[13] = test system: Streptococcus agalactiae CMX 508; conditions: organism code KK; BHI agar, 35-37° C., 20 to 24 hours; unit assumed
In short: as §1

[14] = test system: Nocardia Asteroides ATCC9970; conditions: organism code VV; BHI agar, 35-37° C., 20 to 24 hours; unit assumed
In short: as §1

[15] = test system: Staphylococcus aureus A5177; conditions: organism code BB; BHI agar, 35-37° C., 20 to 24 hours; unit assumed
In short: as §1

[16] = test system: Micrococcus luteus ATCC 9341; conditions: organism code OO; BHI agar, 35-37° C., 20 to 24 hours; unit assumed
In short: as §2

Escherichia coli DC-2 = conditions: organism code SS; BHI agar, 35-37° C., 20 to 24 hours; unit assumed
In short: as §1

[17] = test system: Streptococcus pyogenes EES61; conditions: organism code LL; BHI agar, 35-37° C., 20 to 24 hours; unit assumed
In short: as §1

[18] = test system: Staphylococcus aureus ATCC 6538P; conditions: organism code AA; BHI agar, 35-37° C., 20 to 24 hours; unit assumed
In short: as §1

Escherichia coli JUHL = conditions: organism code QQ; BHI agar, 35-37° C., 20 to 24 hours; unit assumed
In short: as §1

[19] = test system: Haemophilis Influenzae DILL AMP R; conditions: organism code WW; BHI agar, 35-37° C., 20 to 24 hours; unit assumed
In short: as §1

[20] = test system: Staphylococcus aureus NCTC10649M; conditions: organism code EE; BHI agar, 35-37° C., 20 to 24 hours; unit assumed
In short: as §1

[21] = test system: Enterococcus faecium ATCC 8043; conditions: organism code II; BHI agar, 35-37° C., 20 to 24 hours; unit assumed
In short: as §1

[22] = test system: Streptococcus Pneumonia GYR 1171; conditions: organism code YY; BHI agar, 35-37° C., 20 to 24 hours; unit assumed
In short: as §1

[23] = test system: Staphylococcus aureus CMX 553; conditions: organism code FF; BHI agar, 35-37° C., 20 to 24 hours; unit assumed
In short: as §1

Row | SMILES | MIC [1] [µg/mL] | MIC [2] [µg/mL] | MIC [3] [µg/mL] | MIC [4] [µg/mL] | MIC [5] [µg/mL] | MIC [6] [µg/mL] | MIC (Escherichia coli SS) [µg/mL] | MIC [7] [µg/mL] | MIC [8] [µg/mL] | MIC [9] [µg/mL] | MIC [10] [µg/mL] | MIC (Candida albicans CCH 442) [µg/mL] | MIC [11] [µg/mL] | MIC [12] [µg/mL] | MIC [13] [µg/mL] | MIC [14] [µg/mL] | MIC [15] [µg/mL] | MIC [16] [µg/mL] | MIC (Escherichia coli DC-2) [µg/mL] | MIC [17] [µg/mL] | further results
1 | CC[C@H]1OC(=O)[C@H](C)C(=O)[C@H](C)[C@@H](O[C@@H]2O[C@H](C)C[C@H](N(C)C)[C@H]2O)[C@](C)(OCC#Cc2ccc(-c3ccc(F)cc3)s2)C[C@@H](C)C(=O)[C@H](C)[C@H]2NC(=O)O[C@@]21C [Example 22] | 0.39 (≈ 0.48 µM) | 1.56 (≈ 1.92 µM) | 3.1 (≈ 3.81 µM) | 4 (≈ 4.92 µM) | 3.1 (≈ 3.81 µM) | 3.1 (≈ 3.81 µM) | 25 (≈ 30.8 µM) | > 100 | > 100 | 4 (≈ 4.92 µM) | 1 (≈ 1.23 µM) | > 100 | 3.1 (≈ 3.81 µM) | > 100 | 0.39 (≈ 0.48 µM) | 0.78 (≈ 0.959 µM) | 3.1 (≈ 3.81 µM) | 0.39 (≈ 0.48 µM) | > 100 | 0.39 (≈ 0.48 µM) | MIC [18]: 3.1 µg/mL (≈ 3.81 µM); MIC (Escherichia coli JUHL): > 100 µg/mL; MIC [19]: 64 µg/mL (≈ 78.7 µM); MIC [20]: 3.1 µg/mL (≈ 3.81 µM); MIC [21]: 0.78 µg/mL (≈ 0.959 µM); MIC [22]: 1 µg/mL (≈ 1.23 µM); MIC [23]: 3.1 µg/mL (≈ 3.81 µM)
2 | CC[C@H]1OC(=O)[C@H](C)C(=O)[C@H](C)[C@@H](O[C@@H]2O[C@H](C)C[C@H](N(C)C)[C@H]2O)[C@](C)(OCC#Cc2ccc(-c3ccco3)s2)C[C@@H](C)C(=O)[C@H](C)[C@H]2NC(=O)O[C@@]21C [Example 23] | 0.01 (≈ 0.0127 µM) | 0.78 (≈ 0.994 µM) | 0.05 (≈ 0.0637 µM) | 8 (≈ 10.2 µM) | 0.05 (≈ 0.0637 µM) | 0.1 (≈ 0.127 µM) | 0.39 (≈ 0.497 µM) | > 100 | > 100 | 0.25 (≈ 0.318 µM) | 0.03 (≈ 0.0382 µM) | > 100 | 0.05 (≈ 0.0637 µM) | 6.2 (≈ 7.9 µM) | ≤ 0.005 | 0.02 (≈ 0.0255 µM) | 0.05 (≈ 0.0637 µM) | 0.01 (≈ 0.0127 µM) | 50 (≈ 63.7 µM) | 0.1 (≈ 0.127 µM) | MIC [18]: 0.05 µg/mL (≈ 0.0637 µM); MIC (Escherichia coli JUHL): 50 µg/mL (≈ 63.7 µM); MIC [19]: 2 µg/mL (≈ 2.55 µM); MIC [20]: 0.05 µg/mL (≈ 0.0637 µM); MIC [21]: 0.02 µg/mL (≈ 0.0255 µM); MIC [22]: 0.03 µg/mL (≈ 0.0382 µM); MIC [23]: 0.05 µg/mL (≈ 0.0637 µM)
3 | CC[C@H]1OC(=O)[C@H](C)C(=O)[C@H](C)[C@@H](O[C@@H]2O[C@H](C)C[C@H](N(C)C)[C@H]2O)[C@](C)(OC/C=C/c2ccc(-c3cccs3)s2)C[C@@H](C)C(=O)[C@H](C)[C@H]2NC(=O)O[C@@]21C [Example 74] | 0.02 (≈ 0.0249 µM) | 0.39 (≈ 0.486 µM) | 0.1 (≈ 0.125 µM) | 2 (≈ 2.49 µM) | 0.1 (≈ 0.125 µM) | 0.1 (≈ 0.125 µM) | 0.39 (≈ 0.486 µM) | 25 (≈ 31.1 µM) | 50 (≈ 62.3 µM) | 0.25 (≈ 0.311 µM) | ≤ 0.004 | > 100 | 0.1 (≈ 0.125 µM) | > 100 | ≤ 0.005 | 0.1 (≈ 0.125 µM) | 0.1 (≈ 0.125 µM) | 0.02 (≈ 0.0249 µM) | > 100 | 0.01 (≈ 0.0125 µM) | MIC [18]: 0.1 µg/mL (≈ 0.125 µM); MIC (Escherichia coli JUHL): 100 µg/mL (≈ 125 µM); MIC [19]: 4 µg/mL (≈ 4.98 µM); MIC [20]: 0.2 µg/mL (≈ 0.249 µM); MIC [21]: 0.02 µg/mL (≈ 0.0249 µM); MIC [22]: ≤ 0.004 µg/mL; MIC [23]: 0.1 µg/mL (≈ 0.125 µM)
